Source: patent publication US20260159474A1, “Aminoindane Compounds and Compositions and Methods of Their Therapeutic Use” (Solvonis Therapeutics Ireland Holdings Limited, priority 2021, published 2026)
Values joined by “and” are separate entries in the source; they are usually repeats but may differ in a detail not shown here. Identical values can stand only once.

Assays:
hSERT = target: T1, hSERT (Homo sapiens, UniProt P31645); assay: SERT uptake SPA in hSERT-CHO cells; format: cell-based; conditions: for IC50: [3H]-serotonin uptake, hSERT-CHO cells, read-out: SERT Uptake SPA (pIC50) (converted)
T1 construct: expressed in transfected cells; host or cells: CHO (hSERT-CHO)
T1 sequence (P31645 whole entry): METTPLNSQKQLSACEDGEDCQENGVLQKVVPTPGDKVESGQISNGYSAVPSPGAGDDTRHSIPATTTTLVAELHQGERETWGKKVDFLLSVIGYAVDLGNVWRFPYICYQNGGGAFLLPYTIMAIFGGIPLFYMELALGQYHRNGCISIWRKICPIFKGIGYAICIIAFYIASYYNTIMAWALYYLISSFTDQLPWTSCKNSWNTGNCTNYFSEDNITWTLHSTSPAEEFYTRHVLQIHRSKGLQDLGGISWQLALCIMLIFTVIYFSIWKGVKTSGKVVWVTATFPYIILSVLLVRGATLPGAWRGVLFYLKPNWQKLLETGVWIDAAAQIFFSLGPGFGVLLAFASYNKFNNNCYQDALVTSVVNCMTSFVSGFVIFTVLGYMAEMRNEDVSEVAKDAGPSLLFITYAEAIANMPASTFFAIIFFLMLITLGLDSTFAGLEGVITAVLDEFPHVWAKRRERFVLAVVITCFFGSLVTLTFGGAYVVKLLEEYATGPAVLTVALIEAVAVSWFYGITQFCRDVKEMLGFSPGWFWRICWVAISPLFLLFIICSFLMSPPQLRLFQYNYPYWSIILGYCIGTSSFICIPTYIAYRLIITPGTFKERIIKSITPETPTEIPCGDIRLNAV
Protocol: (§4) Briefly, on experiment days, hDAT-CHO cells were detached using Versene and added at a density of approximately 300,000 cells/mL to the SPA Mixture, which contains the following components in Assay Buffer (20 mM HEPES, 145 mM NaCl, 5 mM KCl, 2 mM CaCl2), 1 mM MgCl2, 5.5 mM glucose, 0.01% Pluronic F127, pH 7.3): 0.75 mg/mL SPA Imaging beads (RPNQ0001, PerkinElmer), 10 μM pargyline and 80 nM of [3H]-dopamine (NET673, PerkinEImer). The SPA Mixture was added 20 μL/well to 384 well plates containing 0.1 μL/well of test compound in neat DMSO (11 points of 1:5 serial dilution, 0.5% DMSO final) or 0.1 μL of DMSO (total uptake) or 0.1 μL of the standard inhibitor indatraline (at 1 μM final concentration, as nonspecific uptake). Plates were sealed with a Top-seal A and read using a Microbeta counter (PerkinElmer) after 45 minutes of incubation at room temperature. […] The SPA Mixture was added 20 μL/well to 384 well plates containing 0.1 μL/well of test compound in neat DMSO (11 points of 1:5 serial dilution, 0.5% DMSO final), 0.1 μL of DMSO (total uptake), or 0.1 μL of the standard inhibitor indatraline (1 μM, nonspecific uptake). Plates were sealed with a Top-seal A and read using a Microbeta counter (PerkinElmer) after 120 minutes of incubation at room temperature.
For both tests, the raw experimental data (cpm) were elaborated for the determination of pIC50/IC50 values as % inhibition of specific uptake. Concentration-response curves of MDMA, MDDMA, citalopram and GBR-12909 were used as internal standards in all experiments, and the signal window was monitored in each plate performing Z′ calculations, as described in Zhang et al., J Biomol Screen.

[1] = system: 5-HT release in rat synaptosomes; assay: Serotonin release assay in rat cortex synaptosomes; format: biochemical; conditions: for 5-HT Release (pEC50): rat cortex synaptosomes, % of maximal release with 50 μM MDMA, n=2; for SERT/DAT Release Ratio: ratio of 5-HT and DA release potency, rat synaptosomes
Protocol: (§1) Methods-Evaluation of Monoamine Release: The potency of therapeutic compounds for stimulating DA release was measured by an endpoint release filtration assay in a 96-well format using rat synaptosomes, essentially as described by Sandtner et al. (Mol Pharmacol., 2016; 89(1):165-75.) and Baumann et al. (Neuropsychopharmacol, 2013; 38:552-562.) with some variations. One male rat was euthanized, and striatum/cortex regions were dissected over ice. The striatum portions were weighed and put in a glass tube containing ice-cold 0.32 M sucrose (dilution 1:24 w/v) for homogenization, while the frontal cortex tissue was diluted in ice-cold 0.32 M sucrose, 1:20 w/v. Tissues were homogenized and centrifuged for 10 mins at 1000×g. The two supernatants from striatum and cortex (crude synaptosomes) were retained on ice until use.
(§2) Test compounds were then serially diluted 1:4 in neat DMSO as concentration-response curves (CRC) of 11 points. To each well of a 2-mL 96 deep-well plate (Whatman UNIPLATE 96 well) were added: 2 μL of a concentration-response curve (CRC) of test compounds or 2 μL of DMSO (no-release condition) or 2 μL of MDMA 10 mM solution (final 50 μM, for maximal release), followed by 200 μL/well of complete Krebs-phosphate buffer (126 mM NaCl, 2.4 mM KCl, 0.83 mM CaCl2), 0.8 mM MgCl2, 0.5 mM KH2PO4, 0.5 mM Na2SO4, 11.1 mM glucose, 0.05 mM pargyline, 1 mg/mL ascorbic acid, freshly added, pH 7.4), containing 1 μM reserpine to block vesicular uptake of substrate. Desipramine (100 nM) and citalopram (100 nM) were also added to the release assay buffer in order to inhibit NET and SERT uptake, respectively. The final compound dilution, then, was 1:200 in 0.5% DMSO.
(§3) The raw data (cpm) from residual radioactivity onto the filter were elaborated for the determination of pEC50/EC50 values. Specifically, the compound effect was expressed as the percent of maximal release obtained with 50 μM MDMA (100% release) in comparison to vehicle (0.5% DMSO, 0% release). Both MDMA and D-amphetamine in CRC were used as internal controls in each release experiment. In each plate, for both 0% and 100% of release, the signal window was monitored and Z′ calculations were determined using the raw data of four replicates. 5-HT release was calculated in an identical fashion, except that 5 nM 3H-serotonin was added to crude cortex synaptosomes preparation diluted 1:13 (v/v) in complete Krebs-phosphate buffer containing 1 μM Reserpine, 100 nM GBR12909 and 100 nM nomifensine to block vesicular, DAT, and NET uptake, respectively. Synaptosomes were then loaded with 3H-5HT for 60 minutes at RT. After dispensing loaded synaptosomes onto a compound plate (200 μL/well), the release reaction proceeded for an additional 15 minutes. Stop by filtration, counting, and data elaboration were performed as described for DA release. Compounds were tested in duplicate (n=2).

human DAT = target: T2, human DAT (Homo sapiens, UniProt Q01959); assay: DAT uptake SPA in hDAT-CHO cells; format: cell-based; conditions: [3H]-dopamine uptake, hDAT-CHO cells; read-out: DAT Uptake SPA (pIC50) (converted)
T2 construct: expressed in transfected cells; host or cells: CHO (hDAT-CHO)
T2 sequence (Q01959 whole entry): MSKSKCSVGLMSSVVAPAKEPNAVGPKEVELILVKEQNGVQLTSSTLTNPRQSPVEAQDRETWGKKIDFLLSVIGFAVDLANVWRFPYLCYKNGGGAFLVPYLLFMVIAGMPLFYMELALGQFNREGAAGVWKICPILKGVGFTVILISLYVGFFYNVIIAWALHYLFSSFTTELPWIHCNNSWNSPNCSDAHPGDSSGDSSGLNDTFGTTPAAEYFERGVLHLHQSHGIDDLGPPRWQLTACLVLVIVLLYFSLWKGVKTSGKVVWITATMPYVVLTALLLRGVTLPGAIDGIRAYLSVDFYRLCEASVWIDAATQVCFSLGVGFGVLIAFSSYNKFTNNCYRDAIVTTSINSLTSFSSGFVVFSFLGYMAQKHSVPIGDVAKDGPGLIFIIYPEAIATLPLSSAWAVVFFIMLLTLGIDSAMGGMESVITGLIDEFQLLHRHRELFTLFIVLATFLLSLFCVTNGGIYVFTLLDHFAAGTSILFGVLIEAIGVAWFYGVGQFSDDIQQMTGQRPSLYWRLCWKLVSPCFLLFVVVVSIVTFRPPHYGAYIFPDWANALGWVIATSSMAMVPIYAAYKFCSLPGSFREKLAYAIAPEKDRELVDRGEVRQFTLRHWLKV
Protocol: Methods-Evaluation of Monoamine Uptake/Transporter Inhibition: Inhibitory activity on DAT function was measured using an uptake assay in a recombinant CHO cell line stably expressing human DAT (hDAT-CHO). Potency was measured in terms of pIC50 by testing for inhibition of [3H]-dopamine uptake in hDAT-CHO cells in a multiwell format SPA.
as §4
For both tests, the raw experimental data (cpm) were elaborated for the determination of pIC50/IC50 values as % inhibition of specific uptake.

[2] = system: DA release in rat synaptosomes; assay: Dopamine release assay in rat striatal synaptosomes; format: biochemical; conditions: % of maximal release with 50 μM MDMA, n=2
Protocol: as §1, §2
3H-Dopamine was added to the tube containing the crude striatal synaptosomes preparation, diluted 1:20 (v/v) in complete Krebs-phosphate buffer, and was incubated at RT and gently mixed for 60 minutes. Then, 200 μL/well of 3H-DA loaded synaptosomes were dispensed to the compound plate (final 400 μL/well), and the release reaction proceeded for an additional 15 minutes at RT. The release was terminated by vacuum filtration and washing three times with 1 mL of saline solution (NaCl 0.9%) at RT. The retained radioactivity was counted in a scintillation counter after the addition of 50 μL/well Microscint-20.
as §3

DAT/SERT = conditions: Simmler et al., Br J Pharmacol. 2013; cited from earlier work

| SMILES | IC50 (hSERT) | SERT/DAT Uptake Ratio (hSERT; calculated as 1/SERT IC50:1/DAT IC50) | 5-HT Release (pEC50) [1] | SERT/DAT Release Ratio [1] | IC50 (human DAT) | DA Release (pEC50) [2] | DAT/SERT ratio (DAT/SERT) |
| --- | --- | --- | --- | --- | --- | --- | --- |
| COC(=O)Cc1ccc2c(c1)CC(N)C2 (centres unmarked) [CMP-406] | 63.1 µM | >1.6 | 4.3 | >2.0 | > 100 µM | <4.0 |  |
| COC(=O)CCc1ccc2c(c1)CC(N)C2 (centres unmarked) [CMP-407] | 25.1 µM |  | <4.0 | <0.25 | 63.1 µM | 4.6 |  |
| COC(=O)Cc1cc2c(cc1OC)CC(N)C2 (centres unmarked) [CMP-408] | 39.8 µM |  | 4.6 | 3.9 | 100 µM | <4.0 |  |
| CN[C@@H](C)Cc1ccccc1 [methamphetamine] |  |  |  |  |  |  | > 10 and 10 |
